Measurements published in ChEMBL document CHEMBL1201862, “PubChem BioAssay data set” (2004).
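A five-concentration, 48-hour dose response in 96-well plates underlies each endpoint, interpolated linearly between surrounding concentrations. GI50 marks 50% less growth.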 Calls of active or inactive are those of the source. Rule as the data show it: active = GI50 up to about 1.1 µM and inactive = higher.

Experiments:
Assay in all cases: NCI tumour cell line growth inhibition, 48 h
[1] = tested on: 786-0
[2] = tested on: A498
[3] = tested on: A549
[4] = tested on: ACHN
[5] = tested on: CCRF-CEM
[6] = tested on: COLO 205
[7] = tested on: DLD-1
[8] = tested on: DMS-114
[9] = tested on: DMS-273
[10] = tested on: EKVX
[11] = tested on: HCC 2998
[12] = tested on: HCT-116
[13] = tested on: HCT-15
[14] = tested on: HL-60
[15] = tested on: HOP-18
[16] = tested on: HOP-62
[17] = tested on: HT-29
[18] = tested on: IGROV-1
[19] = tested on: K562
[20] = tested on: KM-20L2
[21] = tested on: KM12
[22] = tested on: LOX IMVI
[23] = tested on: LXFL 529
[24] = tested on: M14
[25] = tested on: M19-MEL
[26] = tested on: MOLT-4
[27] = tested on: Malme-3M
[28] = tested on: NCI-H226
[29] = tested on: NCI-H23
[30] = tested on: NCI-H460
[31] = tested on: NCI-H522
[32] = tested on: OVCAR-3
[33] = tested on: OVCAR-4
[34] = tested on: OVCAR-5
[35] = tested on: OVCAR-8
[36] = tested on: RPMI-8226
[37] = tested on: RXF 393
[38] = tested on: SF-268
[39] = tested on: SF-295
[40] = tested on: SF-539
[41] = tested on: SK-MEL-28
[42] = tested on: SK-MEL-2
[43] = tested on: SK-MEL-5
[44] = tested on: SK-OV-3
[45] = tested on: SN12C
[46] = tested on: SNB-19
[47] = tested on: SNB-75
[48] = tested on: SNB-78
[49] = tested on: SR
[50] = tested on: SW-620
[51] = tested on: TK-10
[52] = tested on: U-251
[53] = tested on: UACC-257
[54] = tested on: UACC-62
[55] = tested on: UO-31
[56] = tested on: XF498
[57] = tested on: CAKI-1
[58] = tested on: HOP-92

In the case of CC(=O)OCCOCNC(=S)N/N=C(\C)c1cnc2ccccc2n1, the GI50 [1] is reported as 39.7 µM (inactive), the GI50 [2] is reported as > 100 µM (inactive) and the GI50 [3] is reported as 26.6 µM (inactive). For the same compound, the GI50 [4] was 11.5 µM (inactive), the GI50 [5] was 7.46 µM (inactive) and the GI50 [6] was 20.1 µM (inactive). The GI50 [7] was 26.2 µM (inactive), the GI50 [8] was 15.6 µM (inactive) and the GI50 [9] was 31.9 µM (inactive). For the same compound, the GI50 [10] was 8.53 µM (inactive), the GI50 [11] was 32.7 µM (inactive) and the GI50 [12] was 25.4 µM (inactive). For the same compound, the GI50 [13] was 34 µM, the GI50 [14] was 15.9 µM (inactive) and the GI50 [15] was > 100 µM (inactive). For the same compound, the GI50 [16] was 86.3 µM (inactive), the GI50 [17] was 29.6 µM (inactive) and the GI50 [18] was 42 µM (inactive). The GI50 [19] was 43.4 µM (inactive), the GI50 [20] was 16.3 µM (inactive) and the GI50 [21] was 46.5 µM (inactive). The GI50 [22] was 38.6 µM (inactive), the GI50 [23] was 30.8 µM (inactive) and the GI50 [24] was 36 µM (inactive). The GI50 [25] was 15.8 µM (inactive), the GI50 [26] was 28.6 µM (inactive) and the GI50 [27] was 40.6 µM (inactive). The GI50 [28] was 36.4 µM (inactive), the GI50 [29] was 72.8 µM (inactive) and the GI50 [30] was 27 µM (inactive). The GI50 [31] was 21.9 µM (inactive), the GI50 [32] was 16.8 µM (inactive) and the GI50 [33] was 57.1 µM (inactive). For the same compound, the GI50 [34] was 7.91 µM (inactive), the GI50 [35] was 33.9 µM (inactive) and the GI50 [36] was 47.8 µM (inactive). For the same compound, the GI50 [37] was 33 µM (inactive), the GI50 [38] was 10.4 µM (inactive) and the GI50 [39] was 57.9 µM (inactive). The GI50 [40] was 55.8 µM (inactive), the GI50 [41] was 43.6 µM (inactive) and the GI50 [42] was 33.3 µM (inactive). The GI50 [43] was 25.1 µM (inactive), the GI50 [44] was 33.3 µM (inactive) and the GI50 [45] was 50.4 µM (inactive). For the same compound, the GI50 [46] was 99.3 µM (inactive), the GI50 [47] was 52.7 µM (inactive) and the GI50 [48] was > 100 µM (inactive). The GI50 [49] was > 100 µM (inactive), the GI50 [50] was 28.2 µM (inactive) and the GI50 [51] was > 100 µM (inactive). The GI50 [52] was 29.1 µM (inactive), the GI50 [53] was 48.4 µM (inactive) and the GI50 [54] was 14.2 µM (inactive). The GI50 [55] was 41.5 µM (inactive) and the GI50 [56] was > 100 µM (inactive).
For COC(=O)C1=C(OC)c2cc3c(cc2C(c2cc(OC)c(OC)c(OC)c2)C1C(=O)OC)OCO3 (configuration not stated), the GI50 [1] was > 100 µM (inactive), the GI50 [2] was 43.2 µM (inactive) and the GI50 [3] was > 100 µM (inactive). The GI50 [4] was > 100 µM (inactive), the GI50 [57] was > 100 µM (inactive) and the GI50 [5] was > 100 µM (inactive). The GI50 [6] was 38.7 µM (inactive), the GI50 [7] was > 100 µM (inactive) and the GI50 [8] was > 100 µM (inactive). The GI50 [9] was > 100 µM (inactive), the GI50 [10] was > 100 µM (inactive) and the GI50 [11] was > 100 µM (inactive). For the same compound, the GI50 [12] was > 100 µM (inactive), the GI50 [13] was > 100 µM and the GI50 [14] was > 100 µM (inactive). The GI50 [15] was > 100 µM (inactive), the GI50 [16] was > 100 µM (inactive) and the GI50 [58] was 48.9 µM (inactive). The GI50 [17] was > 100 µM (inactive), the GI50 [18] was > 100 µM (inactive) and the GI50 [19] was > 100 µM (inactive). The GI50 [20] was > 100 µM (inactive), the GI50 [21] was > 100 µM (inactive) and the GI50 [22] was > 100 µM (inactive). For the same compound, the GI50 [23] was > 100 µM (inactive), the GI50 [24] was > 100 µM (inactive) and the GI50 [25] was > 100 µM (inactive). The GI50 [26] was 30.5 µM (inactive), the GI50 [27] was > 100 µM (inactive) and the GI50 [28] was > 100 µM (inactive). The GI50 [29] was > 100 µM (inactive), the GI50 [30] was > 100 µM (inactive) and the GI50 [32] was > 100 µM (inactive). The GI50 [33] was > 100 µM (inactive), the GI50 [34] was > 100 µM (inactive) and the GI50 [35] was 79.3 µM (inactive). The GI50 [36] was 40.6 µM (inactive), the GI50 [37] was 49 µM (inactive) and the GI50 [38] was > 100 µM (inactive). The GI50 [39] was 59.7 µM (inactive), the GI50 [40] was > 100 µM (inactive) and the GI50 [41] was > 100 µM (inactive). For the same compound, the GI50 [42] was > 100 µM (inactive), the GI50 [43] was > 100 µM (inactive) and the GI50 [44] was > 100 µM (inactive). For the same compound, the GI50 [45] was > 100 µM (inactive), the GI50 [47] was > 100 µM (inactive) and the GI50 [48] was > 100 µM (inactive). The GI50 [49] was 96.4 µM (inactive), the GI50 [50] was > 100 µM (inactive) and the GI50 [51] was > 100 µM (inactive). The GI50 [52] was > 100 µM (inactive), the GI50 [53] was > 100 µM (inactive) and the GI50 [54] was > 100 µM (inactive). The GI50 [55] was > 100 µM (inactive) and the GI50 [56] was > 100 µM (inactive).
